Experiments:
Assay type in all cases: cell-based
[1] = system: human breast cancer SKBR-3 cells; assay: Dose response of 1,4-naphthoquinone analogs in human breast cancer cells SKBR-3 (WST-1, 24 h)
Experimental: (§1) 100 microliters of human breast cancer SKBR-3 cells were plated at a density of 8000 cells/well in 96-well plates (triplicates) in growing medium containing 10% Fetal Bovine Serum, penicillin/streptomycin, and glutamine. The next day, increasing concentrations of a 1,4-naphthoquinone analog (diluted from 10 mM DMSO stock solutions) were added. DMSO used as solvent for all analogs, was kept constant through the 96-well plates. The control consisted of DMSO alone. The cells were subsequently incubated for 24 hours at 37° C. and 5% CO2 in normal cell growth conditions. Cell viability was assessed by adding 9 μL/well of WST-1 reagent (Clontech), which measured mitochondrial activity of live cells. […] The incubation time was 3 hours at 37° C. Optical density of the cell samples was measured at 460 nm, by using plate reader Spectra Max 250 (Molecular Devices). The drug was determined to be cytotoxic when OD values show an inverse correlation with analog concentrations.

[2] = system: PTEN-P2/GFP prostate cancer cells; assay: Effect of 1,4-naphthoquinone analogs on PTEN-P2/GFP cell proliferation (WST-1 cell viability, 24 h); conditions: Mus musculus, WST-1, medium with 10% FBS and DHT, read-out: PTEN-P2/GFP cell proliferation, percent of control
Method in brief: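 PTEN-P2/GFP cells, 8000/well, in medium with 10% FBS and 10^−8M DHT, dosed next day with increasing analog concentrations (constant DMSO) for 24 h at 37 °C, 5% CO2. Viability read by WST-1 after 3 h at 37 °C, OD at 460 nm.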

[3] = system: human fibrosarcoma HT1080 cells; assay: Dose response of 1,4-naphthoquinone analogs in human fibrosarcoma cells HT1080 (WST-1, 24 h)
Experimental: as §1, with “fibrosarcoma HT1080” for “breast cancer SKBR-3”

| Compound | human SKBR-3 cell proliferation, percent of control ([1]; 1.2 μM) | human SKBR-3 cell proliferation, percent of control ([1]; 2.5 μM) | human SKBR-3 cell proliferation, percent of control ([1]; 5 μM) | human SKBR-3 cell proliferation, percent of control ([1]; 7.5 μM) | human SKBR-3 cell proliferation, percent of control ([1]; 10 μM) | human SKBR-3 cell proliferation, percent of control ([1]; 15 μM) | human SKBR-3 cell proliferation, percent of control ([1]; 20 μM) | activity at 1.2 µM [2] [%] | activity at 2.5 µM [2] [%] | activity at 5 µM [2] [%] | activity at 7.5 µM [2] [%] | activity at 10 µM [2] [%] | activity at 15 µM [2] [%] | proliferation of human fibrosarcoma HT1080 cells, percent of control ([3]; 1.2 μM) | proliferation of human fibrosarcoma HT1080 cells, percent of control ([3]; 2.5 μM) | proliferation of human fibrosarcoma HT1080 cells, percent of control ([3]; 5 μM) | proliferation of human fibrosarcoma HT1080 cells, percent of control ([3]; 7.5 μM) | proliferation of human fibrosarcoma HT1080 cells, percent of control ([3]; 10 μM) | proliferation of human fibrosarcoma HT1080 cells, percent of control ([3]; 15 μM) | proliferation of human fibrosarcoma HT1080 cells, percent of control ([3]; 20 μM) | also measured |
| --- | --- | --- | --- | --- | --- | --- | --- | --- | --- | --- | --- | --- | --- | --- | --- | --- | --- | --- | --- | --- | --- |
| O=C1C=C(Oc2c(F)cc(F)cc2F)C(=O)c2ccccc21 [Analog F04, 2-(2,4,6-trifluorophenoxy)-1,4-naphthoquinone] | 86.74% of control | 83.72% of control | 74.38% of control | 65.90% of control | 7.52% of control | 1.20% of control | 1.90% of control | 101 | 101 | 83.3 | 17.6 | 2.09 | 1.47 | 87.77% of control | 81.64% of control | 78.43% of control | 84.86% of control | 76.41% of control | 69.17% of control | 63.51% of control | activity at 20 µM [2]: 2.64% |
| COc1ccc(OC2=CC(=O)c3ccccc3C2=O)cc1 [Analog F05, 2-(4-methoxyphenoxy)-1,4-naphthoquinone] | 151.35% of control | 144.41% of control | 120.15% of control | 94.14% of control | 17.05% of control | 1.91% of control | 2.99% of control | 102 | 113 | 56.1 | 8.83 | 1.32 | 0.77 | 81.04% of control | 76.27% of control | 67.81% of control | 67.85% of control | 66.08% of control | 55.00% of control | 56.04% of control | activity at 20 µM [2]: 3.41% |
| O=C1C=C(Oc2ccc(OCc3ccccc3)cc2)C(=O)c2ccccc21 [Analog F06, 2-(4-(benzyloxy)phenoxy)-1,4-naphthoquinone] | 152.32% of control | 147.42% of control | 134.16% of control | 151.41% of control | 136.66% of control | 125.96% of control | 21.95% of control | 99.8 | 99.8 | 105 | 106 | 108 | 99.2 | 82.93% of control | 81.12% of control | 80.24% of control | 81.24% of control | 50.19% of control | 49.19% of control | 46.81% of control | activity at 20 µM [2]: 79.9% |
| Cc1cc(Cl)ccc1OC1=CC(=O)c2ccccc2C1=O [Analog F07, 2-(4-chloro-2-methylphenoxy)-1,4-naphthoquinone] | 143.50% of control | 160.12% of control | 131.48% of control | 68.35% of control | 12.78% of control | 2.70% of control | 6.29% of control |  |  | 96 |  | 36.3 | 19.4 | 85.35% of control | 89.16% of control | 76.04% of control | 68.43% of control | 69.89% of control | 67.89% of control | 69.50% of control | activity at 2 µM ([2]; 2 μM): 101%; activity at 3 µM ([2]; 3 μM): 102%; activity at 4 µM ([2]; 4 μM): 101%; activity at 6 µM ([2]; 6 μM): 88.4%; activity at 7 µM ([2]; 7 μM): 81.8%; activity at 25 µM ([2]; 25 μM): 12.5% |
